Experimental data from EP2975030B1, “DIHYDROPYRIDAZINE-3,5-DIONE DERIVATIVE” (Chugai Seiyaku Kabushiki Kaisha, priority 2013, dated 2014).

Test system: rat small-intestinal brush border membrane vesicles
Test: Inhibitory effect on 33PO4 uptake into rat small-intestinal brush border membrane vesicles (rapid filtration method)
Assay type: biochemical, Wistar female rat
Settings: 1 µM test compound; 33PO4 uptake into rat small-intestinal BBMVs, 60 seconds
Summary of the method: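 33PO4 uptake into rat small-intestinal brush border membrane vesicles measured by rapid filtration. Reactions were stopped with ice-cold buffer (110 mM NaCl, 1 mM KH2PO4, 10 mM HEPES pH 7.5), filtered and washed. Vesicle-associated radioactivity was counted by liquid scintillation.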

Molecule | Rate of uptake inhibition (%) (1 µM)
CN1N(Cc2ccc(OCCCC(=O)O)c(F)c2F)C(=O)C(C(=O)Nc2ccc(C(F)(F)F)cc2-c2cc(C(F)(F)F)ncn2)=C(O)C12CCCC2 [Example 332, 4-[2,3-Difluoro-4-[[10-hydroxy-6-methyl-8-oxo-9-[[4-(trifluoromethyl)-2-[6-(trifluoromethyl)pyrimidin-4-yl]phenyl]carbamoyl]-6,7-diazaspiro[4.5]dec-9-en-7-yl]methyl]phenoxy]butanoate] | 3%
CN1N(Cc2ccc(OCCCCOCCCO)c(F)c2F)C(=O)C(C(=O)Nc2ccc(C(F)(F)F)cc2-c2cc(C(F)(F)F)ncn2)=C(O)C12CCCC2 [Example 399] | 42%
CCN1[C@@H](C(C)(C)C)C(O)=C(C(=O)Nc2ccc(Cl)cc2-c2ccc(C(F)(F)F)nc2)C(=O)N1Cc1cccc(F)c1F [Example 245] | 40%
CC(=O)N(C)CCN(C)CCOc1ccc(CN2C(=O)C(C(=O)Nc3ccc(C(F)(F)F)cc3-c3cc(C(F)(F)F)ncn3)=C(O)C3(CCC3)N2C)c(F)c1F [Example 354] | 31%
Cc1nc(NC(=O)C2=C(O)C3(CCC3)N(C)N(Cc3cccc(F)c3F)C2=O)ccc1Br [Example 259] | 52%
CN1N(Cc2cccc(F)c2F)C(=O)C(C(=O)Nc2ccc(Cl)cc2-c2cc(C(F)(F)F)ncn2)=C(O)C12CCCC2 [Example 261] | 77%
CN1N(Cc2ccc(OCCN3CCOCC3)c(F)c2F)C(=O)C(C(=O)Nc2ccc(C(F)(F)F)cc2-c2cc(C(F)(F)F)ncn2)=C(O)C1(C)C [Example 313, 2-[[2,3-Difluoro-4-(2-morpholin-4-ylethoxy)phenyl]methyl]-5-hydroxy-1,6,6-trimethyl-3-oxo-N-[4-(trifluoromethyl)-2-[6-(trifluoromethyl)pyrimidin-4-yl]phenyl]pyridazine-4-carboxamide] | 65%
COc1ccc(OC)c(CN2C(=O)C(C(=O)Nc3ccc(C(F)(F)F)cc3-c3ccc(C(F)(F)F)nc3)=C(O)[C@@]3(C)CCCN23)c1 [Example 176] | 75%
CN(CCOc1ccc(CN2C(=O)C(C(=O)Nc3ccc(C(F)(F)F)cc3-c3cc(C(F)(F)F)ncn3)=C(O)C3(CCCC3)N2C)c(F)c1F)C1COC1 [Example 412, 7-(2,3-Difluoro-4-(2-(methyl(oxetan-3-yl)amino)ethoxy)benzyl)-10-hydroxy-6-methyl-8-oxo-N-(4-(trifluoromethyl)-2-(6-(trifluoromethyl)pyrimidin-4-yl)phenyl)-6,7-diazaspiro[4.5]dec-9-ene-9-carboxamide] | 52%
CN1N(Cc2cccc(F)c2F)C(=O)C(C(=O)Nc2ccc(Cl)cc2-c2ccc(C(F)(F)F)nc2)=C(O)C12CCC2 [Example 256] | 79%
CN1N(Cc2ccc(OCCCOC[C@H](O)CO)c(F)c2F)C(=O)C(C(=O)Nc2ccc(C(F)(F)F)cc2-c2cc(C(F)(F)F)ncn2)=C(O)C12CCCC2 [Example 392] | 47%
1-[(3-Fluorophenyl)methyl]-4-hydroxy-4a-methyl-N-[5-methyl-2-(trifluoromethyl)furan-3-yl]-2-oxo-5,6,7,8-tetrahydropyrido[1,2-b]pyridazine-3-carboxamide [Example 18] | 12%
COCCN(C)CCN(C)c1ccc(CN2C(=O)C(C(=O)Nc3ccc(C(F)(F)F)cc3-c3cc(C(F)(F)F)ncn3)=C(O)C3(CCCC3)N2C)c(F)c1F [Example 442] | 24%
CN1N(Cc2ccc(C#CCN3CCOCC3)c(F)c2F)C(=O)C(C(=O)Nc2ccc(C(F)(F)F)cc2-c2cc(C(F)(F)F)ncn2)=C(O)C1(C)C [Example 315, 2-[[2,3-Difluoro-4-(3-morpholin-4-ylprop-1-ynil)phenyl]methyl]-5-hydroxy-1,6,6-trimethyl-3-oxo-N-[4-(trifluoromethyl)-2-[6-(trifluoromethyl)pyrimidin-4-yl]phenyl]pyridazine-4-carboxamide] | 63%
C[C@]12CCCN1N(Cc1cccc([N+](=O)[O-])c1)C(=O)C(C(=O)Nc1ccc(Br)c(F)c1)=C2O [Example 27] | 76%
CN1N(Cc2ccc(OCCN3CCOCC3)c(F)c2F)C(=O)C(C(=O)Nc2ccc(Cl)cc2-c2cc(C(F)(F)F)ncn2)=C(O)C12CCCCC2 [Example 297] | 36%
Cc1ccccc1CN1C(=O)C(C(=O)Nc2ccc(C(F)(F)F)cc2-c2cc(C(F)(F)F)ncn2)=C(O)[C@@]2(C)CCCN12 [Example 185] | 83%
C[C@]12CCCN1N(Cc1cccc(F)c1F)C(=O)C(C(=O)Nc1ccc(C(F)(F)F)cc1-c1cnc(Cl)c(C#N)c1)=C2O [Example 68, (4aR)-N-[2-(6-Chloro-5-cyanopyridin-3-yl)-4-(trifluoromethyl)phenyl]-1-[(2,3-difluorophenyl)methyl]-4-hydroxy-4a-methyl-2-oxo-6,7-dihydro-5H-pyrrolo[1,2-b]pyridazine-3-carboxamide] | 84%
CN1N(Cc2ccc(OCCN3CCC(N4CCOCC4)CC3)c(F)c2F)C(=O)C(C(=O)Nc2ccc(C(F)(F)F)cc2-c2cc(C(F)(F)F)ncn2)=C(O)C12CCC2 [Example 358] | 34%
COc1cccc(-c2cc(C(F)(F)F)ccc2NC(=O)C2=C(O)[C@@]3(C)CCCN3N(Cc3ccc(OCc4ccncc4)c(F)c3F)C2=O)c1OC [Example 151, (4aR)-1-[[2,3-Difluoro-4-(pyridin-4-ylmethoxy)phenyl]methyl]-N-[2-(2,3-dimethoxyphenyl)-4-(trifluoromethyl)phenyl]-4-hydroxy-4a-methyl-2-oxo-6,7-dihydro-5H-pyrrolo[1,2-b]pyridazine-3-carboxamide] | 92%
CC(C)[C@@H]1C(O)=C(C(=O)Nc2ccc(Cl)cc2-c2ccc(C(F)(F)F)nc2)C(=O)N(Cc2cccc(F)c2F)N1C [Example 251] | 43%
CC(C)[C@@H]1C(O)=C(C(=O)Nc2ccc(Cl)cc2-c2cc(C(F)(F)F)ncn2)C(=O)N(Cc2cccc(F)c2F)N1C [Example 250] | 52%
CN1N(Cc2ccc(OCCCOC[C@H](O)CO)c(F)c2F)C(=O)C(C(=O)Nc2ccc(C(F)(F)F)cc2-c2ccc(C(F)(F)F)nc2)=C(O)C12CCCC2 [Example 386] | 36%
C[C@]12CCCN1N(Cc1c(F)cc(OCCCCCCOC[C@@H](O)CO)cc1F)C(=O)C(C(=O)Nc1ccc(C(F)(F)F)cc1-c1ccc(C(F)(F)F)nc1)=C2O [Example 154] | 73%
C[C@]12CCCN1N(Cc1ccc(C#CCCCCC(=O)O)c(F)c1F)C(=O)C(C(=O)Nc1ccc(C(F)(F)F)cc1-c1cncc(C(F)(F)F)c1)=C2O [Example 119, 7-[4-[[(4aR)4-Hydroxy-4a-methyl-2-oxo-3-[[4-(trifluoromethyl)-2-[5-(trifluoromethyl)pyridin-3-yl]phenyl]carbamoyl]-6,7-dihydro-5H-pyrrolo[1,2-b]pyridazin-1-yl]methyl)-2,3-difluorophenyl]hept-6-ynoate] | 71%
